Holding throughout (format): cell-based
The test system of one experiment is SW48 (wt) cells. The experiment in a line: Cell viability assay (CELLTITER-GLO), SW48 cells. The note with it: Homo sapiens, 72 h, 3 days at 37° C., CELLTITER-GLO luminescence, read-out: Inhibition of Cancerous Cells IC50 (μM) SW48 (wt). As to the method:
(§1) AsPC-1, 1358, and SW48 cells were cultured in RPMI 1640 media supplemented with 10% fetal bovine serum, streptomycin, and penicillin. Lovo and SW480 cells were cultured in DMEM media supplemented with 10% fetal bovine serum, streptomycin, and penicillin. The cell lines were plated in their respective medium supplemented with 2.5% fetal bovine serum, streptomycin, and penicillin. All cell lines were plated in white walled 96-well plates at 2,000 cells/well or 384-well plates at 500 cells/well, except Lovo, which were plated at 4,000 or 1,000 cells/well, respectively. The cells were incubated in DMSO (control) or a compound for 3 days at 37° C. under 5% CO2. A CELLTITER-GLO® reagent (100 μL) was then added to each well. After a 10 min incubation with shaking, luminescence was measured using an ENVISION® multimode plate reader.

The subject of the next experiment is H358 (G12C) cells. As to the kind of experiment: Cell viability assay (CELLTITER-GLO), H358 cells. As to conditions: Homo sapiens, NCI-H358, 72 h, 3 days at 37° C., CELLTITER-GLO luminescence, read-out: Inhibition of Cancerous Cells IC50 (μM) H358 (G12C). As to the method:
as §1

The test system of another experiment is Lovo (G13D) cells. As to the kind of experiment: Cell viability assay (CELLTITER-GLO), Lovo cells. The note with it: Homo sapiens, 72 h, 3 days at 37° C., CELLTITER-GLO luminescence, read-out: Inhibition of Cancerous Cells IC50 (μM) Lovo (G13D). How it is done:
as §1

The subject of a further experiment is SW480 (G12V) cells. The experiment in a line: Cell viability assay (CELLTITER-GLO), SW480 cells. The note with it: Homo sapiens, 72 h, 3 days at 37° C., CELLTITER-GLO luminescence, read-out: Inhibition of Cancerous Cells IC50 (μM) SW480 (G12V). As to the method: as §1
The next experiment concerns AsPC-1 (G12D) cells. As to the kind of experiment: Cell viability assay (CELLTITER-GLO), AsPC-1 cells. The note with it: Homo sapiens, ASPC1, 72 h, 3 days at 37° C., CELLTITER-GLO luminescence, read-out: Inhibition of Cancerous Cells IC50 (μM) AsPC-1 (G12D). How it is done:
as §1

Each structure is given as a SMILES string. A value given as a limit tells only on which side of the number the result lay.

Take `COc1cc2c(N[C@H](C)c3cccc(Br)c3)nc(C)nc2cc1OCCCCCCCCCCCN1CCN(C(=O)CNc2ccc3c(C4CCC(=O)NC4=O)nn(C)c3c2)CC1` (stereo partly drawn) [Compound D3, 3-(6-((2-(4-(11-((4-(((R)-1-(3-Bromophenyl)ethyl)amino)-6-methoxy-2-methyl-quinazolin-7-yl)oxy)undecyl)piperazin-1-yl)-2-oxoethyl)amino)-1-methyl-1H-indazol-3-yl)-piperidine-2,6-dione]: the IC50 in the experiment on SW48 (wt) cells is 0.48 µM; with H358 (G12C) cells, 1.4 µM; with Lovo (G13D) cells, 0.64 µM; in the experiment with SW480 (G12V) cells, 0.61 µM.

For the compound `COc1cc2nc(C)nc(N[C@H](C)c3cccc(Br)c3)c2cc1OC` [reference compound], the 50% inhibitory concentration (IC50) in the experiment on SW48 (wt) cells amounted to 3.6 µM; in the experiment with H358 (G12C) cells, 3.2 µM; in the experiment with Lovo (G13D) cells it was 2.5 µM; in the experiment with AsPC-1 (G12D) cells it was 5.1 µM; in the experiment with SW480 (G12V) cells, 3.4 µM.

`COc1cc2c(N[C@H](C)c3cccc(Br)c3)nc(C)nc2cc1OCCCCCCCCCCCN1CCN(C(=O)CNc2ccc3c(N4CCC(=O)NC4=O)nn(C)c3c2)CC1` [Compound D7, (R)-1-(6-((2-(4-(11-((4-((1-(3-Bromophenyl)ethyl)amino)-6-methoxy-2-methyl-quinazolin-7-yl)oxy)undecyl)piperazin-1-yl)-2-oxoethyl)amino)-1-methyl-1H-indazol-3-yl)-dihydropyrimidine-2,4(1H,3H)-dione]: the 50% inhibitory concentration (IC50) in the experiment on SW48 (wt) cells is 0.67 µM; with H358 (G12C) cells it was > 10 µM; with Lovo (G13D) cells it was 1.1 µM; in the experiment on AsPC-1 (G12D) cells, 4.5 µM; in the experiment with SW480 (G12V) cells, 0.36 µM.

For `COc1cc2c(N[C@H](C)c3cccc(Br)c3)nc(C)nc2cc1OCCCCCCCCCN1CCN(C(=O)CNc2cccc3c(C4CCC(=O)NC4=O)nn(C)c23)CC1` (stereo partly drawn) [Compound D5, 3-(7-((2-(4-(9-((4-(((R)-1-(3-Bromophenyl)ethyl)amino)-6-methoxy-2-methyl-quinazolin-7-yl)oxy)nonyl)piperazin-1-yl)-2-oxoethyl)amino)-1-methyl-1H-indazol-3-yl)-piperidine-2,6-dione], the IC50 was 1.5 µM in the experiment on SW48 (wt) cells, > 10 µM in the experiment on H358 (G12C) cells, 0.42 µM with Lovo (G13D) cells and 0.94 µM in the experiment on SW480 (G12V) cells.

As for `COc1cc2c(N[C@H](C)c3cccc(Br)c3)nc(C)nc2cc1OCCCCCCCCCCCN1CCN(C(=O)CNc2ccc(C3CCC(=O)NC3=O)cc2)CC1` (stereo partly drawn) [Compound B6, 3-(4-((2-(4-(11-((4-(((R)-1-(3-bromophenyl)ethyl)amino)-6-methoxy-2-methyl-quinazolin-7-yl)oxy)undecyl)piperazin-1-yl)-2-oxoethyl)amino)phenyl)piperidine-2,6-dione], the IC50 in the experiment with SW48 (wt) cells came out at 3.7 µM; in the experiment on H358 (G12C) cells, 2.1 µM; in the experiment with Lovo (G13D) cells it was 0.48 µM; with SW480 (G12V) cells, 0.3 µM.

`COc1cc2c(N[C@H](C)c3cccc(Br)c3)nc(C)nc2cc1OCCCCCCCCCCCN1CCN(C(=O)COc2cccc(N3CCC(=O)NC3=O)c2)CC1` [Compound C6, (R)-1-(3-(2-(4-(11-((4-((1-(3-Bromophenyl)ethyl)amino)-6-methoxy-2-methyl-quinazolin-7-yl)oxy)undecyl)piperazin-1-yl)-2-oxoethoxy)phenyl)dihydropyrimidine-2,4(1H,3H)-dione]: the IC50 was found to be 2.8 µM in the experiment with SW48 (wt) cells; 3.3 µM in the experiment on H358 (G12C) cells; 0.74 µM in the experiment with Lovo (G13D) cells; 3.4 µM in the experiment with AsPC-1 (G12D) cells; 0.58 µM in the experiment with SW480 (G12V) cells.

On to `COc1cc2c(N[C@H](C)c3cccc(Br)c3)nc(C)nc2cc1OCCCCCCCCCN1CCN(C(=O)COc2cccc(N3CCC(=O)NC3=O)c2)CC1` [Compound C5, (R)-1-(3-(2-(4-(9-((4-((1-(3-Bromophenyl)ethyl)amino)-6-methoxy-2-methyl-quinazolin-7-yl)oxy)nonyl)piperazin-1-yl)-2-oxoethoxy)phenyl)dihydropyrimidine-2,4(1H,3H)-dione], for which the IC50 with SW48 (wt) cells amounted to 2 µM; in the experiment with H358 (G12C) cells, 1.9 µM; in the experiment on Lovo (G13D) cells, 0.63 µM; in the experiment with AsPC-1 (G12D) cells, 1.5 µM; with SW480 (G12V) cells it was 0.57 µM.

With `COc1cc2c(N[C@H](C)c3cccc(Br)c3)nc(C)nc2cc1OCCCCCCCCCCCN1CCN(C(=O)CNc2cccc3c(C4CCC(=O)NC4=O)nn(C)c23)CC1` (stereo partly drawn) [Compound D6, 3-(7-((2-(4-(11-((4-(((R)-1-(3-Bromophenyl)ethyl)amino)-6-methoxy-2-methylquinazolin-7-yl)oxy)undecyl)piperazin-1-yl)-2-oxoethyl)amino)-1-methyl-1H-indazol-3-yl)piperidine-2,6-dione], the IC50 in the experiment with SW48 (wt) cells stood at 2.4 µM; in the experiment with H358 (G12C) cells, 6.4 µM; in the experiment with Lovo (G13D) cells, 0.76 µM; in the experiment with SW480 (G12V) cells, 1.7 µM.

As for `COc1cc2c(N[C@H](C)c3cccc(Br)c3)nc(C)nc2cc1OCCCCCCCCCCCN1CCN(C(=O)CNc2cccc(C3CCC(=O)NC3=O)c2)CC1` (stereo partly drawn) [Compound B3, 3-(3-((2-(4-(11-((4-(((R)-1-(3-Bromophenyl)ethyl)amino)-6-methoxy-2-methyl-quinazolin-7-yl)oxy)undecyl)piperazin-1-yl)-2-oxoethyl)amino)phenyl)piperidine-2,6-dione], the IC50 in the experiment on SW48 (wt) cells amounted to 1.7 µM; in the experiment with H358 (G12C) cells, 2.9 µM; with Lovo (G13D) cells, 0.55 µM; in the experiment with SW480 (G12V) cells, 0.48 µM.

Consider `COc1cc2c(N[C@H](C)c3cccc(Br)c3)nc(C)nc2cc1OCCCCCCCCCN1CCN(C(=O)CNc2ccc3c(C4CCC(=O)NC4=O)nn(C)c3c2)CC1` (stereo partly drawn) [Compound D2, 3-(6-((2-(4-(9-((4-(((R)-1-(3-bromophenyl)ethyl)amino)-6-methoxy-2-methylquinazolin-7-yl)oxy)nonyl)piperazin-1-yl)-2-oxoethyl)amino)-1-methyl-1H-indazol-3-yl)piperidine-2,6-dione], for which the IC50 is 1.2 µM with SW48 (wt) cells, 1.7 µM in the experiment with H358 (G12C) cells, 0.55 µM in the experiment with Lovo (G13D) cells and 0.97 µM with SW480 (G12V) cells.

In the case of `COc1cc2c(N[C@H](C)c3cccc(Br)c3)nc(C)nc2cc1OCCCCCCCCCN1CCN(C(=O)CNc2ccc(C3CCC(=O)NC3=O)cc2)CC1` (stereo partly drawn) [Compound B5, 3-(4-((2-(4-(9-((4-(((R)-1-(3-Bromophenyl)ethyl)amino)-6-methoxy-2-methyl-quinazolin-7-yl)oxy)nonyl)piperazin-1-yl)-2-oxoethyl)amino)phenyl)piperidine-2,6-dione], the IC50 in the experiment with SW48 (wt) cells came to 1.2 µM; in the experiment on H358 (G12C) cells, 2 µM; in the experiment with Lovo (G13D) cells it was 0.19 µM; in the experiment on SW480 (G12V) cells, 0.45 µM.

For `COc1cc2c(N[C@H](C)c3cccc(Br)c3)nc(C)nc2cc1OCCCCCCCN1CCN(C(=O)CNc2ccc3c(C4CCC(=O)NC4=O)nn(C)c3c2)CC1` (stereo partly drawn) [Compound D1, 3-(6-((2-(4-(7-((4-(((R)-1-(3-Bromophenyl)ethyl)amino)-6-methoxy-2-methyl-quinazolin-7-yl)oxy)heptyl)piperazin-1-yl)-2-oxoethyl)amino)-1-methyl-1H-indazol-3-yl)-piperidine-2,6-dione], the half-maximal inhibitory concentration (IC50) amounted to 1.8 µM with SW48 (wt) cells, 2.9 µM with H358 (G12C) cells, 1.1 µM in the experiment on Lovo (G13D) cells and 1.4 µM with SW480 (G12V) cells.

In the case of `COc1cc2c(N[C@H](C)c3cccc(Br)c3)nc(C)nc2cc1OCCCCCCCN1CCN(C(=O)CNc2cccc3c(C4CCC(=O)NC4=O)nn(C)c23)CC1` (stereo partly drawn) [Compound D4, 3-(7-((2-(4-(7-((4-(((R)-1-(3-Bromophenyl)ethyl)amino)-6-methoxy-2-methyl-quinazolin-7-yl)oxy)heptyl)piperazin-1-yl)-2-oxoethyl)amino)-1-methyl-1H-indazol-3-yl)-piperidine-2,6-dione], the concentration for half-maximal inhibition (IC50) came out at 0.85 µM with SW48 (wt) cells, 1.6 µM with H358 (G12C) cells, 0.37 µM with Lovo (G13D) cells and 0.65 µM in the experiment with SW480 (G12V) cells.

In the case of `COc1cc2c(N[C@H](C)c3cccc(Br)c3)nc(C)nc2cc1OCCCCCCCN1CCN(C(=O)CNc2cccc(C3CCC(=O)NC3=O)c2)CC1` (stereo partly drawn) [Compound B1, 3-(3-((2-(4-(7-((4-(((R)-1-(3-bromophenyl)ethyl)amino)-6-methoxy-2-methylquinazolin-7-yl)oxy)heptyl)piperazin-1-yl)-2-oxoethyl)amino)phenyl)piperidine-2,6-dione], the IC50 in the experiment with SW48 (wt) cells was 1.1 µM; in the experiment with H358 (G12C) cells it was 1.1 µM; in the experiment on Lovo (G13D) cells, 0.34 µM; in the experiment with SW480 (G12V) cells, 0.66 µM.

For `COc1cc2c(N[C@H](C)c3cccc(Br)c3)nc(C)nc2cc1OCCCCCCCN1CCN(C(=O)CNc2ccc(C3CCC(=O)NC3=O)cc2)CC1` (stereo partly drawn) [Compound B4, 3-(4-((2-(4-(7-((4-(((R)-1-(3-bromophenyl)ethyl)amino)-6-methoxy-2-methylquinazolin-7-yl)oxy)heptyl)piperazin-1-yl)-2-oxoethyl)amino)phenyl)piperidine-2,6-dione], the 50% inhibitory concentration (IC50) with SW48 (wt) cells worked out at 1.1 µM; with H358 (G12C) cells it was 0.93 µM; in the experiment on Lovo (G13D) cells, 0.23 µM; in the experiment on SW480 (G12V) cells, 0.49 µM.
